Values after ≈ are worked out from the molar mass of the structure shown.
Legend:
[1] = Comparative dissolution of complexed and non-complexed digoxin (B.P. rotating basket); type: physicochemical; settings: B.P. 1980 rotating basket, deionised water (1 liter), 37° C., HPLC
Method: The dissolution rate of complexed (1:3 complex, Example 1) and non-complexed digoxin was determined in the British Pharmacopoeia rotating basket apparatus (B.P., 1980). The dissolution medium was deionised water (1 liter) at 37° C. A scoop containing sample (about […] of digoxin or about […] of digoxin/B-cyclodextrin complex) was added to the dissolution medium and allowed to settle to the base of the vessel. Samples (2 ml) were taken at intervals up to 60 minutes via a volumetric pippette and assayed by high performance liquid chromatography to determine cumulative percentage release of drug.

[2] = Comparative solubility of complexed and non-complexed cardiac glycosides in deionised water; type: physicochemical; settings: shaken about 8 hours, ambient temperature, HPLC
From the text: The resultant mixture was filtered through a filter paper (Whatman No. 2) and then through a membrane filter (0.02 um, Millipore), the filtrate diluted 100 fold with deionised water and the solution thus obtained assayed for cardiac glycoside in a conventional manner using high performance liquid chromatography.

[3] = background statement; cited from earlier work

Question: For `C[C@H]1O[C@@H](O[C@H]2[C@@H](O)C[C@H](O[C@H]3[C@@H](O)C[C@H](O[C@H]4CC[C@@]5(C)[C@H](CC[C@@H]6[C@@H]5C[C@@H](O)[C@]5(C)[C@@H](C7=CC(=O)OC7)CC[C@]65O)C4)O[C@@H]3C)O[C@@H]2C)C[C@H](O)[C@@H]1O` [Digoxin, digoxin], which “T80 (time for 80% release)” value [1] is on record?
Answer: > 60 min

Question: And the solubility at 8 h [2]?
Answer: 46 µg/mL (≈ 58.9 µM)

Question: And the solubility thermodynamic at 8 h ([2]; read-out: Solubility, Non-complexed (percent))?
Answer: 46 µg/mL (≈ 58.9 µM)

Question: And the “solubility of digoxin in water” value [3]?
Answer: ~0.005%

From US4555504A, “Inclusion complex of β-cyclodextrin and digoxin” (Burroughs Wellcome Co., priority 1981, dated 1985)
